Laboratory results taken from PMC7029851, “Antibacterial activity of novel dual bacterial DNA type II topoisomerase inhibitors” (PLoS ONE, 2020).
“And” between values parts separate entries of the source, which are not always exact repeats. Equal values may be shown once. Where a name gives a salt, the structure may show the parent alone. Read-outs that look alike come from different tables or passages of the source.

Key:
[1] = test system: E. faecalis clinical isolates (n = 12) vanA (6)/vanB (6); test: MIC, multidrug-resistant clinical isolates; type: cell-based; details: Enterococcus faecalis; for MIC: read-out: MIC range
Method in brief: (§1)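 CLSI-based testing; agar dilution used solely for N. gonorrhoeae, broth microdilution otherwise. MIC50 and MIC90 reported.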

[2] = test system: E. faecium clinical isolates (n = 12) vanA (6)/vanB (6); test: MIC, multidrug-resistant clinical isolates; type: cell-based; details: Enterococcus faecium; for MIC: read-out: MIC range
Method in brief: as §1

[3] = test system: E. coli TolC- mutant; test: microbe, parasite or virus in culture; type: cell-based; details: Escherichia coli
Description: The bacterial reference strains used in this study were purchased from ATCC (American Type Culture Collection) via LGC Standards (Middlesex, UK). […] Clinical MDR isolates were provided by Aptuit, the IHMA Europa Sàrl repository (Epalinges, Switzerland) and the Statens Serum Institute (Copenhagen, Denmark).
(§2) MICs were determined by the broth microdilution method (the agar dilution method was used only for N. gonorrhoeae) according to CLSI guidelines.

[4] = test system: N. gonorrhoeae WHO N; test: MIC, agar dilution; type: cell-based; details: Neisseria gonorrhoeae, ciprofloxacin-resistant
Description: as §2

[5] = test system: N. gonorrhoeae WHO K; test: MIC, agar dilution; type: cell-based; details: Neisseria gonorrhoeae, ciprofloxacin-resistant
Description: as §2

[6] = test system: N. gonorrhoeae WHO L; test: MIC, agar dilution; type: cell-based; details: Neisseria gonorrhoeae, ciprofloxacin-resistant
Description: as §2

[7] = test system: N. gonorrhoeae ATCC 49226; test: MIC, agar dilution; type: cell-based; details: Neisseria gonorrhoeae, ATCC49226; N. gonorrhoeae ATCC 49226, ciprofloxacin-susceptible
Description: as §2

[8] = test system: N. gonorrhoeae ATCC 19424; test: MIC, agar dilution; type: cell-based; details: Neisseria gonorrhoeae, ATCC19424; N. gonorrhoeae ATCC 19424, ciprofloxacin-susceptible
Description: as §2

[9] = test system: S. aureus ATCC 29213; test: MIC, broth microdilution; type: cell-based, Staphylococcus aureus; details: Staphylococcus aureus, ATCC29213, S. aureus ATCC 29213, ciprofloxacin-susceptible
Description: as §2

[10] = target: T1, S. aureus Topoisomerase IV (Staphylococcus aureus, UniProt P0C1U9); test: S. aureus topoisomerase IV decatenation gel assay; type: biochemical
T1 construct: purchased Inspiralis (Norwich, UK)
Description: (§3) S. aureus and E. coli DNA gyrase supercoiling and topo IV decatenation assay kits, as well as human topoisomerase II decatenation assay kits, were provided by Inspiralis (Norwich, UK). Assays were performed according to the manufacturer’s instructions. The compounds were serially diluted (1:3 dilutions starting from a 300 μM final concentration) and assayed in a reaction mixture to obtain concentration-response curves in two different replicate experiments. The final concentration of DMSO in the assays was 1% (v/v). The reactions were terminated by the addition of 30 μl chloroform/isoamyl alcohol (26:1) and 30 μl Stop Dye (40% sucrose, 100 mM Tris HCl pH 7.5, 1 mM EDTA, 0.5 μg/ml bromophenol blue), after which the samples were loaded onto a 1.0% TAE ([…]) gel that was then run at 80 V for 2 hours. DNA bands were visualized by ethidium bromide staining the gel for 10 minutes, which was then destained for 10 minutes in water and analysed using gel documentation equipment (Syngene, Cambridge, UK). The DNA in each band was quantitated using Syngene Gene Tools software. Raw gel data (fluorescent band volumes) were converted by the software to percentages of the control (the fully supercoiled or decatenated DNA band). […] The global curve fit non-linear regression tool was used to calculate the IC50 values. The results are expressed as the average values obtained after calculating the IC50 from each replicate run.

[11] = test system: N. gonorrhoeae clinical isolates (n = 38); test: microbe, parasite or virus in culture; type: cell-based, Neisseria gonorrhoeae; details: for MIC50 / MIC90: Neisseria gonorrhoeae
Method in brief: as §1

[12] = target: T2, E. coli DNA gyrase (Escherichia coli, UniProt P0AES4); test: E. coli DNA gyrase supercoiling gel assay; type: biochemical
T2 construct: purchased Inspiralis (Norwich, UK)
Description: as §3

[13] = test system: K. pneumoniae ATCC 700603; test: MIC, broth microdilution; type: cell-based; details: Klebsiella pneumoniae, ATCC700603; K. pneumoniae ATCC 700603, ciprofloxacin-susceptible
Description: as §2

[14] = test system: H. influenzae ATCC 49766; test: MIC, broth microdilution; type: cell-based; details: Haemophilus influenzae, ATCC49766; H. influenzae ATCC 49766, ciprofloxacin-susceptible
Description: as §2

[15] = test system: P. aeruginosa ATCC 27853; test: MIC, broth microdilution; type: cell-based; details: Pseudomonas aeruginosa, ATCC27853; P. aeruginosa ATCC 27853, ciprofloxacin-susceptible
Description: as §2

[16] = test system: S. pneumoniae ATCC 49619; test: MIC, broth microdilution; type: cell-based; details: Streptococcus pneumoniae, ATCC49619; S. pneumoniae ATCC 49619, ciprofloxacin-susceptible
Description: as §2

[17] = test system: E. coli ATCC 25922; test: MIC, broth microdilution; type: cell-based; details: Escherichia coli, ATCC25922; E. coli ATCC 25922, ciprofloxacin-susceptible
Description: as §2

[18] = test system: E. faecalis ATCC 29212; test: MIC, broth microdilution; type: cell-based; details: Enterococcus faecalis, ATCC29212; E. faecalis ATCC 29212, ciprofloxacin-susceptible
Description: as §2

[19] = test system: S. aureus BAA-1720; test: MIC, broth microdilution; type: cell-based; details: Staphylococcus aureus, BAA1720; S. aureus BAA-1720, ciprofloxacin-resistant
Description: as §2

[20] = target: T3, S. aureus DNA gyrase (Staphylococcus aureus, UniProt P20831); test: S. aureus DNA gyrase supercoiling gel assay; type: biochemical
T3 construct: purchased Inspiralis (Norwich, UK)
Description: as §3

[21] = test system: A. baumannii clinical isolates (n = 10); test: microbe, parasite or virus in culture; type: cell-based, Acinetobacter baumannii; details: for MIC50 / MIC90: Acinetobacter baumannii
Method in brief: as §1

[22] = target: T4, Human Topoisomerase II (Homo sapiens, UniProt P11388); test: Human topoisomerase II decatenation gel assay; type: biochemical
T4 construct: purchased Inspiralis (Norwich, UK)
Description: as §3

[23] = target: T5, E. coli Topoisomerase IV (Escherichia coli, UniProt P0AFI2); test: E. coli topoisomerase IV decatenation gel assay; type: biochemical
T5 construct: purchased Inspiralis (Norwich, UK)
Description: as §3

[24] = replicate Assay 1, read-out: IC50 S. aureus Topoisomerase IV decatenation, Assay 1
[25] = replicate Assay 2, read-out: IC50 S. aureus Topoisomerase IV decatenation, Assay 2
[26] = average of two replicate experiments, read-out: IC50 E. coli Gyrase Supercoiling (average)
[27] = replicate Assay 1, read-out: IC50 E. coli gyrase Supercoiling, Assay 1
[28] = replicate Assay 2, read-out: IC50 E. coli gyrase Supercoiling, Assay 2
[29] = average of two replicate experiments, read-out: IC50 S. aureus Gyrase Supercoiling (average)
[30] = replicate Assay 1, read-out: IC50 S.aureus gyrase Supercoiling, Assay 1
[31] = replicate Assay 2, read-out: IC50 S.aureus gyrase Supercoiling, Assay 2
[32] = average of two replicate experiments, read-out: IC50 Human Topoisomerase II decatenation (average)
[33] = replicate Assay 1, read-out: IC50 Human Topoisomerase II (TopoII) decatenation, Assay 1
[34] = replicate Assay 2, read-out: IC50 Human Topoisomerase II (TopoII) decatenation, Assay 2
[35] = average of two replicate experiments, read-out: IC50 E. coli Topoisomerase IV decatenation (average)
[36] = replicate Assay 1, read-out: IC50 E. coli Topoisomerase IV decatenation, Assay 1
[37] = replicate Assay 2, read-out: IC50 E. coli Topoisomerase IV decatenation, Assay 2

T3 sequence (P20831 whole entry): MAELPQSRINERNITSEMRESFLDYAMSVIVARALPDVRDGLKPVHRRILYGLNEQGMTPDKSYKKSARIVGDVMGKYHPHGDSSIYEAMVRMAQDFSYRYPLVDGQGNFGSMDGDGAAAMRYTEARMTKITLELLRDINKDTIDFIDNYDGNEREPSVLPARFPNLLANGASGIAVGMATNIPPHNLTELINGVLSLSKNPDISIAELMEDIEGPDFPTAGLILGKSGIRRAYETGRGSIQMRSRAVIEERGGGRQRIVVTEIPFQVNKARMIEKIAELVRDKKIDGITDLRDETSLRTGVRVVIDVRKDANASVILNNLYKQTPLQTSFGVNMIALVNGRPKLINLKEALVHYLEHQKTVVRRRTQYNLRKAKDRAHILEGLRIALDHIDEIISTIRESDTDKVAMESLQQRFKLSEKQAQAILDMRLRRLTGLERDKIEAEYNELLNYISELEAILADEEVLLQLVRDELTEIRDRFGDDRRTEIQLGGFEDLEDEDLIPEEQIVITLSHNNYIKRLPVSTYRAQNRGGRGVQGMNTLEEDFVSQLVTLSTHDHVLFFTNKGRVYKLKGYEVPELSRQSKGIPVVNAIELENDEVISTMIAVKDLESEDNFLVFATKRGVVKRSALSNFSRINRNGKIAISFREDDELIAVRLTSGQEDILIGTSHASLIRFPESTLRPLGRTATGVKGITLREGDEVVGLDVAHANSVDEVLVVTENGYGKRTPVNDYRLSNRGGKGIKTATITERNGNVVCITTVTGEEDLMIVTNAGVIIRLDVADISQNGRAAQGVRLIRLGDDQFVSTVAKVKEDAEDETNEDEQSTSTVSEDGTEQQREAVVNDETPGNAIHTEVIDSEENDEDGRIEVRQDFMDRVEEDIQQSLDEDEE
T3 sequence (P0A0K8 whole entry partner): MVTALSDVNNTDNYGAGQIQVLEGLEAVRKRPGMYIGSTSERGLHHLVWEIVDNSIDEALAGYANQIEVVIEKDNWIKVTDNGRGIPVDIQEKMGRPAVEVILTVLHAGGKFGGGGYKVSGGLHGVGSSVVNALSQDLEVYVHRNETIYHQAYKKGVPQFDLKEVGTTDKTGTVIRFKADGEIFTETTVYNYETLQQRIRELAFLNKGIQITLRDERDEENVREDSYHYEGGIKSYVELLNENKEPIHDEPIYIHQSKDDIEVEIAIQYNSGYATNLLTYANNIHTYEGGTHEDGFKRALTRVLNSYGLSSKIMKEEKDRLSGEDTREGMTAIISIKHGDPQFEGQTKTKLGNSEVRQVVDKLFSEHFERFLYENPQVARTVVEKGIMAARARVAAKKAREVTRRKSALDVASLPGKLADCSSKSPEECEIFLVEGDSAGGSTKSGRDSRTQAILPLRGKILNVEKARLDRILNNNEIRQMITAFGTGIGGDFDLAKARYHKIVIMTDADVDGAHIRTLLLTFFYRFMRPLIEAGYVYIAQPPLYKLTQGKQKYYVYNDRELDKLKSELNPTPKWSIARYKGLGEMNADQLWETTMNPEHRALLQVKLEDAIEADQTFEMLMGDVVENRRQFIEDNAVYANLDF
T2 sequence (P0AES4 whole entry): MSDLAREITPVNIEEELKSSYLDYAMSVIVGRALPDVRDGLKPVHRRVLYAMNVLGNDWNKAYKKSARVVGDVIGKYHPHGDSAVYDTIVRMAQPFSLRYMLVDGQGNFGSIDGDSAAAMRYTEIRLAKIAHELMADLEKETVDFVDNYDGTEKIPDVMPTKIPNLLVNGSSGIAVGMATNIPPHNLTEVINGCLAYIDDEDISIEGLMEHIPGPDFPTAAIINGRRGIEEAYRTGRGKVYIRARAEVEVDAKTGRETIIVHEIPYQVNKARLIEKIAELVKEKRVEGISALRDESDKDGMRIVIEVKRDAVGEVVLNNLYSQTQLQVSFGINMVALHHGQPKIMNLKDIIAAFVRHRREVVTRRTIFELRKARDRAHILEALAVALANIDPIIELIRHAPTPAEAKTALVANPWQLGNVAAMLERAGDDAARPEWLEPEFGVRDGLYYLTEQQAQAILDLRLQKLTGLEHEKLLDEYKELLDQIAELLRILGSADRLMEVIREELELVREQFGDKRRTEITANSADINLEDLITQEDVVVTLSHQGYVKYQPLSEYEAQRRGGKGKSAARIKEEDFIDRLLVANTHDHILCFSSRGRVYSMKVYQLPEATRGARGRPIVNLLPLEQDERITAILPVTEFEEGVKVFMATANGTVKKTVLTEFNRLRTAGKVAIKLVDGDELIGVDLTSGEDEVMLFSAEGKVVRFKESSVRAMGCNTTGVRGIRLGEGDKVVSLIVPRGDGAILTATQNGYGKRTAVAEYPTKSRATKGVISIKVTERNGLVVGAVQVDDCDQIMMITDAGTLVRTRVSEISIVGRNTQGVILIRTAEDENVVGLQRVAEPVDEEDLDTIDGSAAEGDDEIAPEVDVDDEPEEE
T5 sequence (P20083 whole entry): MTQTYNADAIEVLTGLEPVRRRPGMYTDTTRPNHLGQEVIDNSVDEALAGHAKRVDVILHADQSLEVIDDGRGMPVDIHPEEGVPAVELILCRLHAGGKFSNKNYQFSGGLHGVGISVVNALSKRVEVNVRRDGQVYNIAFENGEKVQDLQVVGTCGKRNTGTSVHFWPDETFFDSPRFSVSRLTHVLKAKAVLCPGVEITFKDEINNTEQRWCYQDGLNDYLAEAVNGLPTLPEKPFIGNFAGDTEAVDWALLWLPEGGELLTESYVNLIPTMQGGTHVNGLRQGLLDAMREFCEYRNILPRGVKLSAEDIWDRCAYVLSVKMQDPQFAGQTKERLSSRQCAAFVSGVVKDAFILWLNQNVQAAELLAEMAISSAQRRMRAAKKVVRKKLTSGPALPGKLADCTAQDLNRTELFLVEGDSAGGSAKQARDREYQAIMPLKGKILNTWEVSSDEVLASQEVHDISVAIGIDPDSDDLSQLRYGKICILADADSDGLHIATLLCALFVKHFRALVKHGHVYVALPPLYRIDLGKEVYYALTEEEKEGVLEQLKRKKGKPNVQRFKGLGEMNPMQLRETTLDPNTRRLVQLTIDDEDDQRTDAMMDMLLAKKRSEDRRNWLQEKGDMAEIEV
T5 sequence (P0AFI2 whole entry): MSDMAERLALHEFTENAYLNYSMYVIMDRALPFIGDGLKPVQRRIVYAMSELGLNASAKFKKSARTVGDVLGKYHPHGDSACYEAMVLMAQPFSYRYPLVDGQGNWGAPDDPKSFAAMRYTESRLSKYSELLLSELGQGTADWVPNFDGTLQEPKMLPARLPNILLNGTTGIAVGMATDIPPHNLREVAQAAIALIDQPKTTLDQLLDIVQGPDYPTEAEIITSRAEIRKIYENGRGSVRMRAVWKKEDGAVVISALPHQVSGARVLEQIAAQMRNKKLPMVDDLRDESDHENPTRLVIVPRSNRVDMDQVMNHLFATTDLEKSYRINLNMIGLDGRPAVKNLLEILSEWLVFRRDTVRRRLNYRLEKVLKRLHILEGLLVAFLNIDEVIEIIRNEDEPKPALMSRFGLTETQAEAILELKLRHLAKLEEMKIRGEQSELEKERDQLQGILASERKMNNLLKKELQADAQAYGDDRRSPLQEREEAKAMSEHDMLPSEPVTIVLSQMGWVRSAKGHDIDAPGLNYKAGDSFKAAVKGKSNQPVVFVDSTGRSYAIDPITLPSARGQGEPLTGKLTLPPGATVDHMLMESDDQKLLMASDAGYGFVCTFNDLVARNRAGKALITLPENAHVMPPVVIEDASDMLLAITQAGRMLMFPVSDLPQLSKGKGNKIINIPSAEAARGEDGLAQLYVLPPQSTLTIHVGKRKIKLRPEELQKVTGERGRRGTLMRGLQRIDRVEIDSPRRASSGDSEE

`O=c1oc2ccc(F)cc2c2[nH]c(CN[C@H]3CC[C@H](n4c(=O)cnc5ncc(F)cc54)CC3)cc12` [Compound 4, 8-fluoro-2-({[trans-4-(7-fluoro-2-oxopyrido[2,3-b]pyrazin-1(2H)-yl)cyclohexyl]amino}methyl)[1]benzopyrano[4,3-b]pyrrol-4(1H)-one (formate salt)] gave an MIC50 [1] of 0.25 µg/mL, an MIC90 [1] of 0.5 µg/mL and an MIC [1] of 0.12 to 1 µg/mL. The MIC50 [2] was 1 µg/mL, the MIC90 [2] was 1 µg/mL and the MIC [2] was 0.25 to 8 µg/mL. For the same compound, the MIC [3] was ≤ 0.016 µg/mL, the MIC [4] was 0.06 µg/mL and the MIC [5] was 0.12 µg/mL. The MIC [6] was 0.12 µg/mL, the MIC [7] was 0.06 µg/mL and the MIC [8] was ≤ 0.06 µg/mL. The MIC [9] was 0.25 µg/mL, the IC50 [10] was 220 nM and the IC50 [10, 24] was 260 nM. The IC50 [10, 25] was 170 nM, the MIC range [11] was 0.004 to 0.12 µg/mL and the MIC50 [11] was 0.06 µg/mL. For the same compound, the MIC90 [11] was 0.12 µg/mL, the IC50 [12, 26] was 130 nM and the IC50 [12, 27] was 150 nM. It also gave an IC50 [12, 28] of 120 nM, an MIC [13] of 4 µg/mL and an MIC [14] of 0.12 µg/mL. For the same compound, the MIC [15] was 2 µg/mL, the MIC [16] was 0.25 µg/mL and the MIC [17] was 0.5 µg/mL. For the same compound, the MIC [18] was 0.5 µg/mL, the MIC [19] was 0.5 µg/mL and the IC50 [20, 29] was 1000 nM. For the same compound, the IC50 [20, 30] was 800 nM, the IC50 [20, 31] was 1200 nM and the MIC range [21] was ≤0.06 to 0.5 µg/mL. For the same compound, the MIC50 [21] was 0.25 µg/mL, the MIC90 [21] was 0.5 µg/mL and the IC50 [22, 32] was > 300000 nM. For the same compound, the IC50 [22, 33] was > 300000 nM, the IC50 [22, 34] was > 300000 nM and the IC50 [23, 35] was 300 nM. For the same compound, the IC50 [23, 36] was 500 nM and the IC50 [23, 37] was 200 nM.

`COc1cnc2ncc(=O)n([C@H]3CC[C@H](NCc4cc5c(=O)oc6ccc(F)cc6c5[nH]4)CC3)c2c1` [Compound 5, 8-Fluoro-2-({[trans-4-(7-methoxy-2-oxopyrido[2,3-b]pyrazin-1(2H)-yl)cyclohexyl]amino}methyl)[1]benzopyrano[4,3-b]pyrrol-4(1H)-one hydrochloride] was tested, and the MIC50 [1] was 0.5 µg/mL, the MIC90 [1] was 2 µg/mL and the MIC [1] was 0.25 to 4 µg/mL. It also gave an MIC50 [2] of 1 µg/mL, an MIC90 [2] of 4 µg/mL and an MIC [2] of 0.25 to 8 µg/mL. For the same compound, the MIC [3] was ≤ 0.016 µg/mL, the MIC [4] was 0.12 µg/mL and the MIC [5] was 0.25 µg/mL. For the same compound, the MIC [6] was 0.25 µg/mL, the MIC [7] was 0.125 µg/mL and the MIC [8] was ≤ 0.06 µg/mL. The MIC [9] was 0.5 µg/mL, the IC50 ([10]; average of two replicate experiments, read-out: IC50 S. aureus Topoisomerase IV decatenation (average)) was 70 nM and the IC50 [10, 24] was 80 nM. It also gave an IC50 [10, 25] of 60 nM, an MIC range [11] of 0.016 to 0.25 µg/mL and an MIC50 [11] of 0.12 µg/mL. The MIC90 [11] was 0.25 µg/mL, the IC50 [12, 26] was 100 nM and the IC50 [12, 27] was 90 nM. The IC50 [12, 28] was 100 nM, the MIC [13] was 8 µg/mL and the MIC [14] was 0.12 µg/mL. It also gave an MIC [15] of 4 µg/mL, an MIC [16] of 0.5 µg/mL and an MIC [17] of 0.5 µg/mL. The MIC [18] was 0.25 µg/mL, the MIC [19] was 1 µg/mL and the IC50 [20, 29] was 170 nM. It also gave an IC50 [20, 30] of 160 nM, an IC50 [20, 31] of 170 nM and an MIC range [21] of 0.25 to 1 µg/mL. The MIC50 [21] was 0.5 µg/mL, the MIC90 [21] was 1 µg/mL and the IC50 [22, 32] was 9120 nM and 9000 nM. It also gave an IC50 [22, 33] of 5450 nM, an IC50 [22, 34] of 12800 nM and an IC50 [23, 35] of 140 nM. For the same compound, the IC50 [23, 36] was 120 nM and the IC50 [23, 37] was 160 nM.
